# Patent US20240423888A1, “COSMETIC AND/OR DERMATOLOGICAL COMPOSITION COMPRISING AT LEAST ONE MEROCYANINE AND AT LEAST ASCORBIC ACID AND/OR A DERIVATIVE THEREOF” (L'OREAL, priority 2021, published 2024)
# System: normal human dermal fibroblasts (NHDF)
# Test: Procollagen I assay (ELISA) in culture medium of normal human dermal fibroblasts exposed to UVA, formulas spread on PMMA plates placed over the cells
# Format: cell-based
# Details: for Mean procollagen 1 (normalized by Cyquant signal and relative to the unexposed Control): 48 hours after last exposure
# Method: The efficacy of a combination in accordance with the invention and outside the invention is tested by assaying procollagen 1 in a culture medium of normal human dermal fibroblasts exposed to UVA.
# • Normal human dermal fibroblasts (NHDF) obtained from a mammary plasty. • Culture: 37° C., 5% CO2. • Culture medium and test medium: MEM (Gibco 21090-022) containing 10% foetal calf serum (FCS) (Gibco 10270-098), 2 mM L-glutamine (Gibco 25030-024), 1 mM sodium pyruvate (Gibco 11360-039), 1× non-essential amino acids (Gibco 11140-035), 250 ng/ml amphotericin B (Gibco 15290-018) and penicillin/streptomycin 20 U/20 […].
# The normal human dermal fibroblasts were seeded in complete MEM medium and incubated for 72 h at 37° C. and 5% CO2.
# The cells are then exposed for 3 consecutive days to a dose of 25 J/cm^2 of total UVA using an Oriel solar simulator fitted with a WG335 filter. Depending on the conditions, a PMMA plate to which the formula comprising the screening agents according to the invention or outside the invention or the Placebo formula is applied is placed over the cells during exposure. After each exposure, the cells are treated or not with ascorbic acid (10 μM) diluted in the culture medium. The cells are then incubated at 37° C., 5% CO2. 48 hours after the last exposure, a cell viability test (XTT Roche cat. 11465015001) is performed, and the number of cells in each well is evaluated by means of a Cyquant assay (Molecular Probes C7026). The media are collected and a procollagen I assay is performed by ELISA (Abcam ab210966). Each experimental condition is performed in duplicate or triplicate and at least three independent experiments are performed.
# [1] = 25 J/cm^2 total UVA on 3 consecutive days, formula 1.3 mg/cm^2 on PMMA plate over the cells, ascorbic acid 10 μM where given
smiles,measurement,setting,value
"O=C1O[C@H]([C@@H](O)CO)C(O)=C1O [VitC, ascorbic acid]",relative % relative to the control 0 J,"0 J/cm^2 (unexposed), ascorbic acid 10 μM",+260.5%
same,Mean procollagen 1 (normalized by Cyquant signal and relative to the unexposed Control),"0 J/cm^2 (unexposed), ascorbic acid 10 μM, unexposed Control = 100",360.5
same,relative % relative to the control 0 J,[1],+29.7%
same,Mean procollagen 1 (normalized by Cyquant signal and relative to the unexposed Control),[1],129.7
same,secretion of procollagen 1 by the fibroblasts,"ascorbic acid tested at 10 μM, result in words",significantly increased
same,ability of ascorbic acid to induce procollagen 1 secretion,"effect of UVA, result in words",significantly reduced
